In publication PMC5765751 (Journal of the American Chemical Society, 2017):

Assay: physchem
Format: physicochemical
Conditions: pH 6

## O=C1NC(Cc2ccc(O)cc2)C(=O)NC1Cc1ccc(O)cc1 (stereo not shown) [cYY, 3,6-bis(4-hydroxybenzyl)piperazine-2,5-dione]
  pKa: 9.9 ± 0.02
